Experimental data published in US9643967B2, “Pyrrolo[3,2-c]pyridine derivatives as TLR inhibitors” (TAKEDA PHARMACEUTICAL COMPANY LIMITED, priority 2013, dated 2017).
Where two headings read alike, the source gives them in different places.

Biological target: T1, mTLR9 (Mus musculus, UniProt Q9EQU3)
T1 construct: Splenocytes isolated from male C57/BL6 mice; from tissue; host or cells: splenocytes from the spleen of male C57BL/6 mice
T1 sequence (Q9EQU3 26-1032): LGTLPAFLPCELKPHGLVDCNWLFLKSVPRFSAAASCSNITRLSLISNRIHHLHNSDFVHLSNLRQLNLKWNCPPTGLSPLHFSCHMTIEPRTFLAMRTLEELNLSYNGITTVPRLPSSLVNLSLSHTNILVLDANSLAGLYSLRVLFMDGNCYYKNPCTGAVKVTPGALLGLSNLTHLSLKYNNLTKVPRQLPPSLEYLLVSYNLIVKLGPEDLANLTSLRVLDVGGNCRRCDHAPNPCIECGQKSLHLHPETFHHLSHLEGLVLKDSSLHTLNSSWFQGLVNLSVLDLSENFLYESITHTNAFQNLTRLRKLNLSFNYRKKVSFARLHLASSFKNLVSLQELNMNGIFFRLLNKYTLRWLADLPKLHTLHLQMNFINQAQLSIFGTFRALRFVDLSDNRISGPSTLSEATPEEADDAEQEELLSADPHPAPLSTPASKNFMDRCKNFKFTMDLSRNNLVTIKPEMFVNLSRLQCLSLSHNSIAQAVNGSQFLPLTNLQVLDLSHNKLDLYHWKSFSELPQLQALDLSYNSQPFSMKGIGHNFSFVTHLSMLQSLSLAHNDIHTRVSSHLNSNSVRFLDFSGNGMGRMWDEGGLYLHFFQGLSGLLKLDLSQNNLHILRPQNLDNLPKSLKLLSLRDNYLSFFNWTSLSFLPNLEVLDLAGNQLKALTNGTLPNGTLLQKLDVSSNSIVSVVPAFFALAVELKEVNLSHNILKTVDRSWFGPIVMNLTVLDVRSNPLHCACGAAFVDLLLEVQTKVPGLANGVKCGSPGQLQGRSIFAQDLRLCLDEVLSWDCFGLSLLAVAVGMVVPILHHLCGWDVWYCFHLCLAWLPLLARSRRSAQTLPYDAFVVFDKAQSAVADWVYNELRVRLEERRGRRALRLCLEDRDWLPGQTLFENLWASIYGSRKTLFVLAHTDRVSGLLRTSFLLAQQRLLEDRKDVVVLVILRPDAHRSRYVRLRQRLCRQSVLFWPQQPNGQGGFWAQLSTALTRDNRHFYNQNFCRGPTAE
Assay: mTLR9 antagonism (IL-6 and TNF-α release assay) in mouse splenocytes, CpG ODN-2006 stimulated
Type: cell-based
From the text: mTLR9 and mTLR7 Antagonism (Cytokine Release Assay) in Mouse Splenocytes
TLR7 ligand R0006 (IDT, 5′-rU*rU*rG*rU*rU*rG*rU*rU*rG*rU*rU*rG*rU*rU*rG*rU*rU*rG*rU*rU-3′ (SEQ ID NO:1)), Liposomal transfection reagent—DOTAP (Roche, Cat. No. 11202375001), TLR9 ligand CpG ODN2006 (Sequence: T*C*G*T*C*G*T*T*T*T*G*T*C*G*T*T*T*T*G*T*C*G*T*T; *=phosphorothioate (SEQ ID NO:2)) DMSO (Sigma, D2650), RPMI Powder (Sigma, R6504), Fetal Bovine Serum (Gibco, 10270), Dulbecco's Phosphate Buffered Saline (Sigma, D1408), 96 well plate (Flat bottom, Costar 3599), ELISA kit for IL-6 (EBioscience, 88-7064-77 and TNFa (EBioscience, 88-7346-88), MACS Buffer (AutoMACS Rinsing Solution (Miltenyl Biotec, 130-091-222)+0.05% BSA), RBC lysis buffer (0.85% NH4Cl), 40 μm cell strainer (BD Falcon, 352340) Method: A. Isolation of Mouse Splenocytes
Mouse spleen was isolated from C57BL6 mouse and stored in 1× chilled PBS buffer until further processed. Spleen was transferred to a sterile petriplate and chopped in to 5-6 pieces in presence of MACS buffer (100 μl) with the help of fresh surgical blade and crushed with flat plunger of a sterile syringe. A uniform suspension was prepared by passing cells through a 40 μm cell strainer. Cells were centrifuged at 450×g for 5 minutes at 4° C., supernatant was discarded and pellet dislodged gently, resuspended in 2 ml of pre-warmed (37° C.) RBC lysis buffer at room temperature with continuous gentle mixing with 1 ml pipette. Lysis buffer was neutralized with 12 ml of chilled MACS buffer and cells were passed through 40 μm cell strainer. Cell suspension was collected in 15 ml MACS buffer and centrifuged at 450×g for 5 minutes at 4° C. Pellet was resuspended in 15 ml MACS buffer and centrifuged at 400×g for 5 minutes. Cells were resuspended in 10 ml of RPMI complete medium and viability was estimated by Trypan blue method.
mTLR9 Antagonism (IL-6 and TNF-α Release Assay):
500 μM stock of CpG ODN-2006 was prepared in sterile, endotoxin-free water. Dilutions of 10× concentrations of NCEs were prepared in incomplete RPMI media, maintaining a final DMSO concentration of 0.3%. NCEs were added in a concentration range of 30 μM to 1 nM in respective wells of assay plate, assay medium containing 0.3% DMSO were added to control wells. 0.2 million splenocytes were added to all the wells and incubated at 37° C. in 5% CO2 incubator for 30 minutes. 1 μg/ml of respective agonist was added to all the wells except those were assigned as negative controls and mixed thoroughly. Incomplete RPMI was added to negative control wells and incubated overnight at 37° C./5% CO2. The plate was centrifuged at 450×g for 5 minutes at room temperature and the supernatant was collected. ELISA was performed as per manufacturer's protocol. S/B Ratio, % Activity and % Inhibition was calculated using MS Excel. IC50 and inhibition curve was generated using Graph Pad Prism.

[1] = 1 μM, IL-6 release, mouse splenocytes, read-out: mTLR9 inhibitory activity (% at 1 μM), IL-6
[2] = 1 μM, TNF-α release, mouse splenocytes, read-out: mTLR9 inhibitory activity (% at 1 μM), TNF-α

Row | inhibition at 1 µM [1] | inhibition at 1 µM [2] | SMILES | inhibition at 1 µM (read-out: mTLR9 inhibitory activity (% at 1 μM), IL-6) | inhibition at 1 µM (read-out: mTLR9 inhibitory activity (% at 1 μM), TNF-α)
1 | 100% | 100% | Cc1cc2[nH]c(CCCN3CCOCC3)cc2c(-c2ccc(N3CCN(C(C)C)CC3)cc2)n1 [Example C3, 4-[3-[4-[4-(4-isopropylpiperazin-1-yl)phenyl]-6-methyl-1H-pyrrolo[3,2-c]pyridin-2-yl]propyl]morpholine] |  | 
2 |  | 100% | CN1CCN(c2ccc(-c3nccc4[nH]c(CCCN5CCOCC5)cc34)cc2)CC1 [Example C2, 4-[3-[4-[4-(4-methylpiperazin-1-yl)phenyl]-1H-pyrrolo[3,2-c]pyridin-2-yl]propyl]morpholine] |  | 
3 |  | 100% | CC(C)N1CCN(c2ccc(-c3nccc4[nH]c(CN5CCC(F)CC5)cc34)cc2)CC1 [Example A24, 2-[(4-fluoro-1-piperidyl)methyl]-4-[4-(4-isopropylpiperazin-yl)phenyl]-1H-pyrrolo[3,2-c] pyridine] |  | 
4 |  | 94% | CN1CCN(c2ccc(-c3nccc4c3cc(CN3CCOCC3)n4C)cc2)CC1 [Example A9, 4-[[1-methyl-4-[4-(4-methylpiperazin-1-yl)phenyl]pyrrolo[3,2-c]pyridin-2-yl]methyl] morpholine] |  | 
5 |  | 100% | Cc1nc(-c2ccc(N3CCN(C(C)C)CC3)cc2)c2cc(CN3CCOCC3)[nH]c2c1C [Example A36, 4-[[4-[4-(4-isopropylpiperazin-1-yl)phenyl]-6,7-dimethyl-1H-pyrrolo[3,2-c]pyridin-2-yl]methyl] morpholine] |  | 
6 |  | 100% | CC(C)N1CCN(c2ccc(-c3nccc4[nH]c(CCCN5CCOCC5)cc34)cc2)CC1 [Example C1, 4-[3-[4-[4-(4-isopropylpiperazin-1-yl)phenyl]-1H-pyrrolo[3,2-c]pyridin-2-yl]propyl]morpholine] |  | 
7 |  | 85% | CC(C)N1CCN(c2ccc(-c3nc(C4CC4)cc4[nH]c(CN5CCOCC5)cc34)cc2)CC1 [Example A33, 4-[[6-cyclopropyl-4-[4-(4-isopropylpiperazin-1-yl)phenyl]-1H-pyrrolo[3,2-c]pyridin-2-yl]methyl] morpholine] |  | 
8 | 100% | 100% | CC(C)N1CCN(c2ccc(-c3nccc4[nH]c(CN5CC(F)C5)cc34)cc2)CC1 [Example A16, 2-[(3-fluoroazetidin-1-yl)methyl]-4-[4-(4-isopropylpiperazin-1-yl)phenyl]-1H-pyrrolo[3,2-c]pyridine] |  | 
9 |  | 93% | CCN1CCN(c2ccc(-c3nc(C)c(C)c4[nH]c(CCN5CCOCC5)cc34)cc2)CC1 [Example B8, 4-[2-[4-[4-(4-ethylpiperazin-1-yl)phenyl]-6,7-dimethyl-1H-pyrrolo[3,2-c]pyridin-2-yl]ethyl]morpholine] |  | 
10 |  | 93% | CN1CCN(c2ccc(-c3nc(C4CC4)cc4[nH]c(CN5CCOCC5)cc34)cc2)CC1 [Example A34, 4-[[6-cyclopropyl-4-[4-(4-methylpiperazin-1-yl)phenyl]-1H-pyrrolo[3,2-c]pyridin-2-yl]methyl] morpholine] |  | 
11 | 100% | 94% | CC(C)N1CCN(c2ccc(-c3nccc4[nH]c(CN5CCOCC5)cc34)cc2)CC1 [Example A1, 4-[[4-[4-(4-isopropylpiperazin-1-yl)phenyl]-1H-pyrrolo[3,2-c]pyridin-2-yl]methyl]morpholine] |  | 
12 | 100% | 100% | CN1CCN(c2ccc(-c3nccc4[nH]c(CN5CCC(F)CC5)cc34)cc2)CC1 [Example A25, 2-[(4-fluoro-1-piperidyl)methyl]-4-[4-(4-methylpiperazin-1-yl)phenyl] - 1H-pyrrolo[3,2-c]pyridine] |  | 
13 | 100% | 100% | Cc1nc(-c2ccc(N3CCN(C(C)C)CC3)cc2)c2cc(CCN3CCCC3)[nH]c2c1C [Example B10, 4-[4-(4-isopropylpiperazin-1-yl)phenyl]-6,7-dimethyl-2-(2-pyrrolidin-1-ylethyl)-1H-pyrrolo[3,2-c]pyridine] |  | 
14 | 100% | 34% | CC(C)N1CCN(c2cccc(-c3nccc4[nH]c(CN5CCOCC5)cc34)c2)CC1 [Example A57, 4-[[4-[3-(4-isopropylpiperazin-1-yl)phenyl]-1H-pyrrolo[3,2-c]pyridin-2-yl]methyl]morpholine] |  | 
15 |  | 100% | Cc1nc(-c2ccc(N3CCN(C)CC3)cc2)c2cc(CN3CCOCC3)[nH]c2c1C [Example A37, 4-[[6,7-dimethyl-4-[4-(4-methylpiperazin-1-yl)phenyl]-1H-pyrrolo[3,2-c]pyridin-2-yl]methyl] morpholine] |  | 
16 |  | 100% | Cc1cc2[nH]c(CCN3CCCCC3)cc2c(-c2ccc(N3CCN(C(C)C)CC3)cc2)n1 [Example B5, 4-[4-(4-isopropylpiperazin-1-yl)phenyl]-6-methyl-2-[2-(1-piperidyl)ethyl]-1H-pyrrolo[3,2-c]pyridine] |  | 
17 |  | 79% | CN1CCC(Oc2ccc(-c3nccc4[nH]c(CN5CCOCC5)cc34)cc2)CC1 [Example A62, 4-[[4-[4-[(1-methyl-4-piperidyl)oxy]phenyl]-1H-pyrrolo[3,2-c]pyridin-2-yl]methyl]morpholine] |  | 
18 | 100% | 100% | Cc1cc2[nH]c(CN3CCC4(CC3)CC(C)C4)cc2c(-c2ccc(N3CCN(C(C)C)CC3)cc2)n1 [Example A30, 4-[4-(4-isopropylpiperazin-1-yl)phenyl]-6-methyl-2-[(2-methyl-7-azaspiro[3.5]nonan-7-yl)methyl]-1H-pyrrolo[3,2-c]pyridine] |  | 
19 |  |  | CC(C)N1CCN(c2ccc(-c3nccc4[nH]c(C(=O)N5CCOCC5)cc34)cc2)CC1 [Example A82, [4-[4-(4-isopropylpiperazin-1-yl)phenyl]-1H-pyrrolo[3,2-c]pyridin-2-yl]-morpholino-methanone] | 100% | 52%

Row | SMILES | inhibition at 1 µM [1] | inhibition at 1 µM [2] | inhibition at 1 µM (read-out: mTLR9 inhibitory activity (% at 1 μM), IL-6) | inhibition at 1 µM (read-out: mTLR9 inhibitory activity (% at 1 μM), TNF-α)
20 | CC(C)N1CC=C(c2ccc(-c3nccc4[nH]c(CN5CCOCC5)cc34)cn2)CC1 [Example A52, 4-[[4-[6-(1-isopropyl-3,6-dihydro-2H-pyridin-4-yl)-3-pyridyl]-1H-pyrrolo[3,2-c]pyridin-2-yl]methyl]morpholine] | 100% | 29% |  | 
